Measured values: US10744114B2, “Use of eupatilin as pharmaceutical composition for prevention and treatment of fibrosis using EMT inhibitory activity” (OSTEONEUROGEN INC., priority 2016, dated 2020)

What was measured:
ONGHEPA1 cells = experiment: Global gene expression analysis (RNA-Seq) and target gene analysis; type: cell-based, mouse; settings: TGF-β vs TGF-β+eupatilin, 24 hr
Procedure: For a mechanism for the therapeutic effect on fibrosis, the global gene expression of DMSO-treated ONGHEPA1 cells (a control group), ONGHEPA1 cells in which fibrosis was induced by TGF-β, and ONGHEPA1 cells treated with TGF-β and eupatilin was measured.
The cells were treated with DMSO, TGF-β or eupatilin for 24 hr, and total RNA was isolated to manufacture a library, after which about 10,000 expressed mRNA species in a total transcriptome of 30 Gb were analyzed using an Illumina High-seq sequencer.

[1] = tested on: Col1 (type 1 Collagen), Vim (Vimentin) and Twist; experiment: Real-time RT-PCR of EMT regulators in ONGHEPA1 cells; type: cell-based, mouse; settings: TGF-β + eupatilin 50 μM, 24 hr
Procedure: Also in order to evaluate whether the effect of eupatilin described above is due to the influence of eupatilin on EMT, for the cells incubated for 24 hr in each test group, the extent of expression of […], for example, Col1 (type 1 Collagen), Vim (Vimentin) and Twist, was measured through real-time RT-PCR.

COc1ccc(-c2cc(=O)c3c(O)c(OC)c(O)cc3o2)cc1OC [eupatilin, 2-(3,4-dimethoxyphenyl)-5,7-dihydroxy-6-methoxy-chromone]
Log2fc Latent transforming growth factor beta binding protein 4 (Ltbp4) (ONGHEPA1 cells): −infinite
Log2fc Leprecan 1 (Lepre1) (ONGHEPA1 cells): 1.75
Log2fc Lethal giant larvae homolog 1 (Ligi1) (ONGHEPA1 cells): infinite
Log2fc Lysyl oxidase-like 2 (Loxl2) (ONGHEPA1 cells): 1.93
Log2fc Microtubule-associated protein 4 (Map4) (ONGHEPA1 cells): −infinite
Log2fc Multiple coagulation factor deficiency 2 (Mcfd2) (ONGHEPA1 cells): −1.28
Log2fc Natriuretic peptide receptor 3 (Npr3) (ONGHEPA1 cells): 2.82
Log2fc Nischarin (Nisch) (ONGHEPA1 cells): infinite
Log2fc Olfactomedin 2 (Olfm2) (ONGHEPA1 cells): 1.9
Log2fc Oxysterol binding protein-like 9 (Osbpl9) (ONGHEPA1 cells): −infinite
Log2fc Palladin, cytoskeletal associated protein (Palld) (ONGHEPA1 cells): infinite
Log2fc Periostin (Postn) (ONGHEPA1 cells): −4.92
Log2fc Perlecan (Heparan sulfate proteoglycan2) (Hspg2) (ONGHEPA1 cells): infinite
Log2fc Pleckstrin and sec7 domain containing 3 (Psd3) (ONGHEPA1 cells): 1.43
Log2fc Pleiotrophin (Ptn) (ONGHEPA1 cells): 2.06
Log2fc Procollagen lysine, 2-oxoglutarate 5-dioxygenase 2 (Plod2) (ONGHEPA1 cells): −1.48
Log2fc Procollagen-lysine, 2-oxoglutarate 5-dioxygenase 3 (Plod3) (ONGHEPA1 cells): −2.01
Log2fc Procollagen-proline, 2-oxoglutarate 4-dioxygenase (proline 4-hydroxylase), alpha 1 polypeptide (P4ha1) (ONGHEPA1 cells): −1.81
Log2fc Prosaposin (Psap) (ONGHEPA1 cells): infinite
Log2fc Prostate androgen-regulated mucin-like protein 1 (Parm1) (ONGHEPA1 cells): 1.57
Log2fc Protein FAM 53B (Fam53b) (ONGHEPA1 cells): infinite
Log2fc Protein disulfide isomerase associated 6 (Pdia6) (ONGHEPA1 cells): 1.85
Log2fc Ring finger protein 145 (Rnf145) (ONGHEPA1 cells): −infinite
Log2fc Septin2 (Sept2) (ONGHEPA1 cells): infinite
Log2fc Serin (or cysteine) peptidase inhibitor, clade F, member 1 (Serpinf1) (ONGHEPA1 cells): 1.99
Log2fc Serine (or cysteine) peptidase inhibitor, clade E, member 1 (Serpine 1) (ONGHEPA1 cells): −1.78
Log2fc Slit homolog 3 (Slit3) (ONGHEPA1 cells): 3.65
Log2fc Spectrin alpha, erythrocytic 1 (Spta1) (ONGHEPA1 cells): 4.01
Log2fc Spectrin beta, non-erythrocytic 1 (Sptbn1) (ONGHEPA1 cells): infinite
Log2fc Spectrin repeat containing nuclear envelope 2 (Syne2) (ONGHEPA1 cells): −infinite
Log2fc Surfeit 1 (SURF1) (ONGHEPA1 cells): −infinite
Log2fc Synaptopodin (Synpo) (ONGHEPA1 cells): −infinite
Log2fc TEA Domain Transcription factor 1 (TEAD1) (ONGHEPA1 cells): −infinite
Log2fc TLC domain-containing protein 2 (Tlcd2) (ONGHEPA1 cells): infinite
Log2fc Tankyrase, TRF1-interacting ankyrin-related ADP-ribose polymerase 2 (Tnks2) (ONGHEPA1 cells): −infinite
Log2fc Tenascin C (Tnc) (ONGHEPA1 cells): 5.1
Log2fc Thrombospondin, type I domain containing 7A (Thsd7a) (ONGHEPA1 cells): 5.06
Log2fc Thymoma viral proto-oncogene 1 (Akt1) (ONGHEPA1 cells): −infinite
Log2fc Tissue inhibitor of metalloproteinase 3 (Timp3) (ONGHEPA1 cells): infinite
Log2fc TraB domain containing 2B (Trabd2b) (ONGHEPA1 cells): 2.75
Log2fc Transformation/transcription domain-associated protein (Trrap) (ONGHEPA1 cells): −infinite
Log2fc Transforming, acidic coiled-coil containing protein 2 (Tacc2) (ONGHEPA1 cells): infinite
Log2fc Tropomyosin 1, alpha (Tpm1) (ONGHEPA1 cells): infinite
Log2fc Tubulin-specific chaperone d (Tbcd) (ONGHEPA1 cells): 2.11
Log2fc Ubiquitin-like modifier activating enzyme 1 (Uba1) (ONGHEPA1 cells): infinite
Log2fc Vinculin (Vcl) (ONGHEPA1 cells): infinite
Log2fc WNK lysine deficient protein kinase 1 (Wnk1) (ONGHEPA1 cells): −infinite
Log2fc Willians-Beuren syndrome chromosome region 17 homolog (Wbscr17) (ONGHEPA1 cells): −2.83
Log2fc c-fos induced growth factor (Figf) (ONGHEPA1 cells): 2.49
Log2fc rho/rac guanine nucleotide exchange factor (GEF) 2 (Arhgef2) (ONGHEPA1 cells): −infinite
Log2fc v-myc myelocytomatosis viral related oncogene, neuroblastoma derived (Mycn) (ONGHEPA1 cells): 2.05
expression of Col1 (type 1 Collagen) [1]: inhibited
expression of Twist [1]: inhibited
expression of Vim (Vimentin) [1]: inhibited
